Laboratory results from paper PMC9737184, “In Vitro Study of Cytotoxic Mechanisms of Alkylphospholipids and Alkyltriazoles in Acute Lymphoblastic Leukemia Models” (Molecules, 2022).

Key:
[1] = test system: Jurkat (acute lymphoblastic leukemia); experiment: Annexin V-FITC/PI cytotoxicity, concentration-response; assay type: cell-based; conditions: Homo sapiens, Jurkat cells, 24 h
Protocol: (§1) Figure 2 Effects of the alkyltriazole compounds C9 and C21 on the viability of different myeloblastic and lymphoblastic leukemia lineages. Lineages cells at 2 × 10^5 cells/mL were used. Cells were exposed to concentrations ranging from 0 to 150 µM for 24 h, and cell viability was assessed by annexin V-FITC/PI staining and flow cytometric analysis. (A) Chemical structure of C9, with a hydroxyl group and an iodine atom as substituents.
(§2) Human leukemia cell lines (Kasumi-1, K-562, ARH-77, Jurkat and CCRF-CEM, see Table S2) were purchased from American Type Culture Collection-ATCC (Manassas, VA, USA). The cells were maintained in RPMI 1640 (Sigma-Aldrich, Burlington, MA, USA) culture medium, supplemented with 10% fetal bovine serum, 100 U/mL penicillin (Sigma-Aldrich, Burlington, MA, USA) and 100 µg/mL streptomycin (Sigma-Aldrich, Burlington, MA, USA). Cells were cultured in a humidified atmosphere at 37 °C and 5% CO2.
(§3) Leukemia or PBMC cells (2 × 10^5 cells/mL) were incubated for 24 h in both the absence and presence of compounds. PBMCs were also treated with vinblastine (Sigma-Aldrich, Burlington, MA, USA) for 24 h as the positive control. Then, the cells were centrifuged and resuspended in binding buffer (0.01 M HEPES, pH 7.4, containing 0.14 M NaCl, and 2.5 mM CaCl2) and incubated at room temperature with annexin V-FITC (BD Biosciences, San Jose, CA, USA) and 5 µg/mL PI (Sigma-Aldrich, Burlington, MA, USA) for 20 min. Sample analysis was performed using an Accuri C6 flow cytometer (BD Biosciences, San Jose, CA, USA) with the acquisition value of 10,000 events.

[2] = test system: CCRF-CEM (acute lymphoblastic leukemia); experiment: as above; assay type: cell-based; conditions: Homo sapiens, CCRF-CEM cells, 24 h
Protocol: as §1, §2, §3

cathepsin B [3] = target: T1, cathepsin B (Homo sapiens, UniProt P07858); experiment: Cathepsin B inhibition, Z-FR-AMC fluorogenic assay (IC50); assay type: biochemical; conditions: Z-FR-AMC 50 µM, pH 5.5, 37 °C
Protocol: (§4) Cathepsin L was assayed in a reaction buffer of 100 mM sodium acetate, containing 100 mM NaCl, 5 mM EDTA and 20% glycerol at pH 5.5. Cathepsin B was assayed in the same buffer supplemented with 0.01% Triton X-100. The enzymes were pre-incubated in the presence of 3 mM DTT for 5 min at 37 °C in a 1 mL final volume with constant stirring. The enzyme activities were monitored using the fluorogenic probe Z-FR-AMC (50 µM and 5 µM for cathepsin B and L, respectively), and the fluorescence was monitored by spectrofluorometry using the fluorometer RF6000 (Shimadzu, Tokyo, Japan) set to λEx = 360 nm and λEm = 480 nm. […] The data were analyzed by Grafit 5.0.13 software using Equation (1). (1) y=100%/1+(x/IC50)^S

cathepsin L [4] = target: T2, cathepsin L (Homo sapiens, UniProt P07711); experiment: Cathepsin L inhibition, Z-FR-AMC fluorogenic assay (IC50); assay type: biochemical; conditions: Z-FR-AMC 5 µM, pH 5.5, 37 °C
Protocol: as §4

[5] = test system: Jurkat and CCRF-CEM lineages; experiment: Annexin V-FITC/PI cytotoxicity, EC50 span over ALL lineages (discussion); assay type: cell-based; conditions: Homo sapiens
Protocol: as §1, §2
Leukemia or PBMC cells (2 × 10^5 cells/mL) were incubated for 24 h in both the absence and presence of compounds. PBMCs were also treated with vinblastine (Sigma-Aldrich, Burlington, MA, USA) for 24 h as the positive control. […]

[6] = test system: cleaved caspase-3 in CCRF-CEM cells; experiment: Cleaved caspase-3 by flow cytometry; assay type: cell-based, human; conditions: 12 h of treatment, EC50 of the compounds
Protocol: (§5) Jurkat and CCRF-CEM cells (2 × 10^5 cells/mL) were treated with C9 and C21 compounds for 12 h. Then, the cells were centrifuged, washed, fixed with 2% paraformaldehyde in PBS for 30 min and permeabilized with 0.01% saponin in PBS for 15 min at room temperature. Afterwards, the cells were incubated for 1 h at 37 °C with anti-cleaved-caspase 3-FITC monoclonal antibodies (Cell Signaling, Danvers, MA, USA) or mouse anti-cleaved PARP-PE/CF594 (Asp^214) antibodies (BD Biosciences, San Jose CA, USA). After incubation, the fluorescence was analyzed using an Accuri C6 flow cytometer (BD Biosciences, San Jose, CA, USA). A total of 10,000 events were acquired per sample.

[7] = test system: cleaved caspase-3 in Jurkat cells; experiment: Cleaved caspase-3 by flow cytometry; assay type: cell-based, human; conditions: 12 h of treatment, EC50 of the compounds
Protocol: as §5

cathepsin B [8] = target: T1, cathepsin B; experiment: Cathepsin B inhibition kinetics and mechanism; assay type: biochemical; conditions: Cat B; for Mec. (mechanism of inhibition): SLNC = simple linear non-competitive, SLC = simple linear competitive
Protocol: (§6) For every kinetic measurement, the compounds were pre-incubated with each enzyme for 10 min before adding the substrate. All kinetic assays were carried out in duplicate. Inhibition constants were determined using different equations, depending on the inhibition mechanism. The assumed KM values of cathepsin B and cathepsin L for Z-FR-AMC were 23.4 µM and 2 µM, respectively, as previously described. The data of the activity rate and substrate concentration generated rectangular hyperbolic profiles that were linearized using the Lineweaver–Burk/double reciprocal plot. The replot profiles of the slope vs inhibitor and intercept vs inhibitor provided the Ki and αKi parameters, respectively.

[9] = test system: Kasumi-1 (acute myeloblastic leukemia); experiment: Annexin V-FITC/PI cytotoxicity, concentration-response; assay type: cell-based; conditions: Homo sapiens, Kasumi cells, 24 h
Protocol: as §1, §2, §3

[10] = test system: ARH-77 (plasma cell leukemia); experiment: as above; assay type: cell-based; conditions: Homo sapiens, ARH-77 cells, 24 h
Protocol: as §1, §2, §3

[11] = test system: K562 (chronic myeloblastic leukemia); experiment: as above; assay type: cell-based; conditions: Homo sapiens, K562 cells, 24 h
Protocol: as §1, §2, §3

cathepsin L [12] = target: T2, cathepsin L; experiment: Cathepsin L inhibition kinetics and mechanism; assay type: biochemical; conditions: Cat L; for Mec. (mechanism of inhibition): SLNC = simple linear non-competitive, SLC = simple linear competitive
Protocol: as §6

PBMCs = experiment: Annexin V-FITC/PI cytotoxicity on healthy control cells; assay type: cell-based, human; conditions: for cytotoxicity to PBMCs compared with vinblastine: 24 h of exposure at different concentrations; for sensitivity of PBMCs compared with the tumor lineages: healthy control cells, 24 h
Source text: Blood was collected using EDTA Vacuum Blood Collection Tubes. Peripheral blood mononuclear cells were isolated from three normal healthy individuals after they provided informed consent and after prior approval by the local Ethics Committee of University of Mogi das Cruzes (ethical appreciation number 72986617.3.0000.5497, and approval number 2.236.397). The fraction of mononuclear cells was separated from the blood by centrifugation with Ficoll-Histopaque-1077 (density 1.077 g/mL, Sigma-Aldrich, Burlington, MA, USA) at 400× g for 30 min. Mononuclear cells were maintained in 100 U/mL penicillin and […] streptomycin in an incubator with a humidified atmosphere at 37 °C and 5% CO2.
as §3, with “events. […]” for “events.”
Figure S3. Concentration-response curve of cytotoxicity of compounds C9, C21 and vinblastine on PBMCs. PBMCs cells were cultured (2x10^5 cells/mL) on 96-well microplates. The cells were treated with compounds C9 ([…]) and C21 (≤), and vinblastine ([…]) (Sigma-Aldrich, Germany) for 24 h. After, the cells were labeled with Annexin V-FITC and 5 μg/mL PI. The results were expressed as percent-age. The data are the mean ± SEM of 3 experiments performed in duplicate.

[13] = test system: PARP-1 cleavage in CCRF-CEM cells; experiment: Cleaved PARP by flow cytometry; assay type: cell-based, human; conditions: 12 h of treatment, EC50 of the compounds
Protocol: as §5

[14] = test system: PARP-1 cleavage in Jurkat cells; experiment: Cleaved PARP by flow cytometry; assay type: cell-based, human; conditions: 12 h of treatment, EC50 of the compounds
Protocol: as §5

CCRF-CEM cells = experiment: Cytochrome c release, confocal colocalization; assay type: cell-based, human; conditions: CCRF-CEM lineage after treatment; control cells 25–35%
Protocol: The release of cytochrome c from the mitochondria was estimated by using double-labeled confocal cell imaging with MitoTracker Green (Invitrogen, Waltham, MA, USA) and a cytochrome c antibody. Jurkat and CCRF-CEM cells (2 × 10^5 cells/mL) were incubated with C9 and C21 compounds for 12 h. Then, cells were incubated with 100 nM MitoTracker Green (Invitrogen, Waltham, MA, USA) for 30 min at 37 °C. Following this, cells were washed with PBS, fixed with 2% paraformaldehyde in PBS for 30 min and permeabilized with 0.01% saponin in PBS for 15 min. Then, the cells were incubated with a monoclonal rabbit antibody against human cytochrome c at 1:100 dilutions (0.5 μg/mL, Cell Signaling, Danvers, MA, USA) for 2 h at room temperature. […] Alexa Fluor 647 was excited using a HeNe laser (λEx = 633 nm) and its emissions were detected at 650–700 nm. MitoTracker Green was excited using an argon laser (λEx = 488 nm) and its emissions were detected at 500–550 nm. DAPI was excited with a diode laser (λEx = 405 nm) and its emissions were detected at […]. […]
The quantitative evaluation of colocalization was performed by using the percentage of colocalized between channels, which correspond to the pixels with red fluorescence and green or blue fluorescence. […] The colocalization coefficient was calculated using the Imaris software.

[15] = test system: T-cell lymphomas lineages; set-up: method as in PMID 24225136; conditions: cited from earlier work

T2 sequence (P07711 114-333): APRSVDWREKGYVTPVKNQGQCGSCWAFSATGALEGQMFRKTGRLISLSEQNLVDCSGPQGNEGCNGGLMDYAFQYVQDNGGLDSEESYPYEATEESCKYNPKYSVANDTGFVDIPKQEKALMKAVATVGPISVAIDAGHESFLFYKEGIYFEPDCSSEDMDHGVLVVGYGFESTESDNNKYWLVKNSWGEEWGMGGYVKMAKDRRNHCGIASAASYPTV

Row | IC50 (cathepsin B [3]) [µM] | IC50 (cathepsin L [4]) [µM] | Ki (cathepsin B [8]) [µM] | Ki (cathepsin L [12]) [µM] | αKi (cathepsin L [12]) [µM] | SMILES | EC50 [1] [µM] | EC50 [2] [µM] | cleaved caspase-3 [6] | cleaved caspase-3 [7] | EC50 [9] [µM] | EC50 [10] [µM] | EC50 [11] [µM] | cytotoxicity to PBMCs compared with vinblastine (PBMCs) | sensitivity of PBMCs compared with the tumor lineages (PBMCs) | PARP-1 cleavage [13] | PARP-1 cleavage [14] | colocalization coefficient between the green and red channel (CCRF-CEM cells) | also measured
1 | 7.5 ± 0.1 | 10.5 ± 0.2 | – | – | – | CCCCCCCCCCCCCCCCOP(=O)([O-])OCC[N+](C)(C)C [Compound 1, hexadecyl 2-(trimethylazaniumyl)ethyl phosphate, reference compound] | 186 ± 12 | 120 ± 3 | – | – | – | – | – | – | – | – | – | – | EC50 ([5]; against the studied lines): 120 to 200 µM
2 | 3.5 ± 0.2 | 1.3 ± 0.1 | 15.3 ± 0.6 | 3.56 ± 0.26 | 3.66 ± 0.07 | OCCCc1cn(CCCCCCCCCCCCI)nn1 [Compound 9] | 63 ± 1 | 40 ± 1.2 | less intense | increase | > 140 | 71 ± 0.8 | > 140 | less cytotoxic than vinblastine | significantly less sensitive | did not occur | observed | 30–40% | Mec. (mechanism of inhibition) (cathepsin B [8]; listed as C9): simple linear competitive inhibition and SLC; Mec. (mechanism of inhibition) (cathepsin L [12]; listed as C9): simple linear noncompetitive inhibition and SLNC; α (cathepsin L [12]; listed as C9): 1; EC50 ([5]; in Jurkat and CCRF-CEM lineages): 40 to 70 µM
3 | 3.9 ± 0.2 | 1.6 ± 0.1 | 27.4 ± 1.2 | 9.72 ± 1.23 | 10.47 ± 1.17 | CC(=O)OCCCc1cn(CCCCCCCCCCCCOS(C)(=O)=O)nn1 [Compound 21] | 77 ± 1.5 | 60 ± 2 | less intense | increase | > 140 | 96 ± 1 | > 140 | less cytotoxic than vinblastine | significantly less sensitive | did not occur | observed | 30–40% | α (cathepsin B [8]): 1.6; αKi (cathepsin B [8]): 43.9 ± 1.7 µM; Mec. (mechanism of inhibition) (cathepsin B [8]; listed as C21): simple linear noncompetitive inhibition and SLNC; Mec. (mechanism of inhibition) (cathepsin L [12]; listed as C21): simple linear noncompetitive inhibition and SLNC; α (cathepsin L [12]; listed as C21): 1
4 | – | – | – | – | – | CCCCCCCC/C=C\CCCCCCCCCCCCOP(=O)([O-])OCC[N+](C)(C)C [erufosine] | – | – | – | – | – | – | – | – | – | – | – | – | EC50 [15]: ~60 µM
